Data: patent US11802120B2, “Fused cyclic urea derivatives as CRHR2 antagonist” (RaQualia Pharma Inc., priority 2018, dated 2023)
pIC50: −log10 of the molar value.

Target: T1, human CRHR2-alpha (Homo sapiens, UniProt Q13324)
T1 sequence (Q13324 1-411): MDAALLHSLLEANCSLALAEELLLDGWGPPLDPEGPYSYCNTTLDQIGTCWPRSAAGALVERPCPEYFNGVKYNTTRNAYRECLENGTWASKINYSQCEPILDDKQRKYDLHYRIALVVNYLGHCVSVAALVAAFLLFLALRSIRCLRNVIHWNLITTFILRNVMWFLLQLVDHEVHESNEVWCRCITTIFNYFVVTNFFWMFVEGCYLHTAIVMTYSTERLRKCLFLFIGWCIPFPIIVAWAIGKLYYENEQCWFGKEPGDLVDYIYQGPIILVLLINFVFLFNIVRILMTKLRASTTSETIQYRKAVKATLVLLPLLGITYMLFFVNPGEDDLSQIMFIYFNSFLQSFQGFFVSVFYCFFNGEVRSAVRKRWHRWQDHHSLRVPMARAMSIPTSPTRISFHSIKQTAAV
Assay: cAMP functional assay for human CRHR2 (LANCE Ultra cAMP, TR-FRET)
Format: cell-based
Settings: CHO-K1 cells expressing human CRHR2-alpha, agonist human urocortin2 at EC80, cAMP; read-out: IC50 against CRHR2
Protocol: cAMP functional assay for human CRHR1 and CRHR2
The ability of the compounds of this invention to inhibit either CRHR2 or CRHR1 is assessed by 3′,5′-cyclic adenosine monophosphate (cAMP) production in cells using the LANCE Ultra cAMP assay kit (ParkinElmer), which are designed based on the homogeneous time-resolved fluorescence resonance energy transfer (TR-FRET) immunoassay.
CHO-K1 (Chinese hamster ovary) cells stably expressing either human CRHR2-alpha (DiscoveRX, Cat. 95-0048C2) or human CRHR1-beta (DiscoveRX, Cat. 95-0047C2) are grown in HAM's F12 media supplemented with 10% fetal bovine serum (FBS), 100 units/mL penicillin, 100 microg/mL hygromycin and 0.5 microg/mL geneticin at 37° C. in 5% CO2 humidified incubator to 80% confluence. After 7 hours starvation treatment in culture media containing 0.1% FBS, the cells are washed with Hanks balanced salt solution (HBSS) and cryopreserved.
For cAMP assay, frozen cells are thawed and washed with HBSS, followed by resuspended in assay buffer (HBSS containing 0.1% bovine serum albumin, 0.5 mM isobutylmethylxanthine and 5 mM Hepes, pH 7.4) at the appropriate concentration for the assay. The cell suspensions are plated on 384-well microplates (Greiner Bio-One) at a density of 4,000 cells per well. After preincubating the cells with various concentrations of the compounds for 30 min at 25° C., an assay buffer containing EC80 concentration of each agonist is added and the cells are incubated for 30 min at 25° C. Human urocortin2 (Peptide Institute) and CRF (Peptide Institute) are used as agonists for CRHR2 and CRHR1, respectively. For the termination of assay, europium-labeled cAMP tracer and ULight (registered trademark) dye labeled cAMP antibodies, both prepared with Lance-Ultra cAMP detection reagent (Perkin Elmer) are added in the plate and incubate for 60 min at 25° C. After incubation, TR-FRET signal is detected by EnVision plate reader (PerkinElmer). The IC50 values for compounds are calculated from dose-response curves by fitting the percent inhibition using XLfit (ID Business Solutions).

pIC50, > 6.52:
Cc1c[nH]c2ncc(-n3c(=O)n(C[C@H]4CC[C@H](NC(=O)c5cc(Cl)cnc5C(F)(F)F)CC4)c4ccccc43)cc12 [Example 425, 5-chloro-N-((1r,4r)-4-((3-(3-methyl-1H-pyrrolo[2,3-b]pyridin-5-yl)-2-oxo-2,3-dihydro-1H-benzo[d]imidazol-1-yl)methyl)cyclo-hexyl)-2-(trifluoromethyl) nicotinamide]
Cc1ncc(Cl)cc1C(=O)N[C@H]1CC[C@H](Cn2c(=O)n(-c3ccc(Br)cc3C#N)c3ccccc32)CC1 [Example 204, N-((1r,4r)-4-((3-(4-bromo-2-cyanophenyl)-2-oxo-2,3-dihydro-1H-benzo[d]imidazol-1-yl)methyl)cyclo-hexyl)-5-chloro-2-methylnicotinamide]
CNc1ccc(-n2c(=O)n(C[C@H]3CC[C@H](NC(=O)c4cc(Cl)cnc4C(F)F)CC3)c3ccc(F)cc32)cn1 [Example 626, 5-chloro-2-(difluoromethyl)-N-((1r,4r)-4-((5-fluoro-3-(6-(methylamino)pyridin-3-yl)-2-oxo-2,3-dihydro-1H-benzo [d]imidazol-1-yl)methyl)cyclohexyl)nicotinamide]
Cc1ncc(Cl)cc1C(=O)N[C@H]1CC[C@H](Cn2c(=O)n(-c3ccccc3C#N)c3ccccc32)CC1 [Example 219, 5-chloro-N-((1r,4r)-4-((3-(2-cyanophenyl)-2-oxo-2,3-dihydro-1H-benzo[d]imidazol-1-yl)methyl)cyclohexyl)-2-methylnicotinamide]
CCC(=O)Nc1ccc(-n2c(=O)n(C[C@H]3CC[C@H](NC(=O)c4cc(Cl)cnc4C(F)F)CC3)c3ccccc32)cn1 [Example 510, 5-chloro-2-(difluoromethyl)-N-((1r,4r)-4-((2-oxo-3-(6-propionamidopyridin-3-yl)-2,3-dihydro-1H-benzo[d]imidazol-1-yl)methyl)cyclo-hexyl)nicotinamide]
Cc1ncc(Cl)cc1C(=O)N[C@H]1CC[C@H](Cn2c(=O)n(-c3cccc4cccnc34)c3ccccc32)CC1 [Example 337, 5-chloro-2-methyl-N-((1r,4r)-4-((2-oxo-3-(quinolin-8-yl)-2,3-dihydro-1H-benzo[d]imidazol-1-yl)methyl)cyclo-hexyl)nicotinamide]
CNc1ccc(-n2c(=O)n(C[C@H]3CC[C@H](NC(=O)c4cc(Cl)cnc4C(F)(F)F)CC3)c3cc(F)ccc32)cn1 [Example 704, 5-chloro-N-((1r,4r)-4-((6-fluoro-3-(6-(methylamino)pyridin-3-yl)-2-oxo-2,3-dihydro-1H-benzo[d]imidazol-1-yl)methyl)cyclo-hexyl)-2-(trifluoromethyl) nicotinamide]
O=C(N[C@H]1CC[C@H](Cn2c(=O)n(-c3ccccc3Cl)c3ncccc32)CC1)c1cc(Cl)cnc1C(F)F [Example 366, 5-chloro-N-((1r,4r)-4-((3-(2-chlorophenyl)-2-oxo-2,3-dihydro-1H-imidazo[4,5-b]pyridin-1-yl)methyl)cyclo-hexyl)-2-(difluoromethyl) nicotinamide]
CCC(=O)Nc1ccc(-n2c(=O)n(C[C@H]3CC[C@H](NC(=O)c4cc(Cl)cnc4C(F)(F)F)CC3)c3ccccc32)cn1 [Example 643, 5-chloro-N-((1r,4r)-4-((2-oxo-3-(6-propionamido-pyridin-3-yl)-2,3-dihydro-1H-benzo[d]imidazol-1-yl)methyl)cyclohexyl)-2-(tri-fluoromethyl)nicotinamide]
Cc1ncc(Cl)cc1C(=O)N[C@H]1CC[C@H](Cn2c(=O)n(-c3ccc(-c4c[nH]cn4)cc3)c3ccccc32)CC1 [Example 667, N-((1r,4r)-4-((3-(4-(1H-imidazol-4-yl)phenyl)-2-oxo-2,3-dihydro-1H-benzo[d]imidazol-1-yl)methyl)cyclohexyl)-5-chloro-2-methylnicotinamide]
CC(F)(F)CNc1ccc(-n2c(=O)n(C[C@H]3CC[C@H](NC(=O)c4cc(Cl)cnc4C(F)F)CC3)c3ccccc32)cn1 [Example 515, 5-chloro-2-(difluoromethyl)-N-((1r,4r)-4-((3-(6-((2,2-difluoropropyl)amino)pyridin-3-yl)-2-oxo-2,3-dihydro-1H-benzo[d]imidazol-1-yl)methyl)cyclohexyl)nicotinamide]
Cc1ncc(Cl)cc1C(=O)N[C@H]1CC[C@H](Cn2c(=O)n(-c3ccc(NC(C)C)nc3)c3ccccc32)CC1 [Example 460, 5-chloro-N-((1r,4r)-4-((3-(6-(isopropylamino)pyridin-3-yl)-2-oxo-2,3-dihydro-1H-benzo[d]imidazol-1-yl)methyl)cyclohexyl)-2-methylnicotinamide]
O=C(N[C@H]1CC[C@H](Cn2c(=O)n(-c3cnc4[nH]ccc4c3)c3ccccc32)CC1)c1cc(Cl)cnc1C(F)F [Example 455, 5-chloro-2-(difluoromethyl)-N-((1r,4r)-4-((2-oxo-3-(1H-pyrrolo[2,3-b]pyridin-5-yl)-2,3-dihydro-1H-benzo[d]imidazol-1-yl)methyl)cyclo-hexyl)nicotinamide]
CNC(=O)c1ccc(-n2c(=O)n(C[C@H]3CC[C@H](NC(=O)c4cc(Cl)cnc4C(F)F)CC3)c3ccccc32)cn1 [Example 325, 5-(3-(((1r,4r)-4-(5-chloro-2-(difluoromethyl)nicotina-mido)cyclohexyl)methyl)-2-oxo-2,3-dihydro-1H-benzo [d]imidazol-1-yl)-N-methylpicolinamide]
Cc1ncc(Cl)cc1C(=O)N[C@H]1CC[C@H](Cn2c(=O)n(-c3ccc(C4CC4)nc3)c3ccccc32)CC1 [Example 86, 5-chloro-N-((1r,4r)-4-((3-(6-cyclopropylpyridin-3-yl)-2-oxo-2,3-dihydro-1H-benzo[d]imidazol-1-yl)methyl)cyclohexyl)-2-methylnicotinamide]
Cc1ncc(Cl)cc1C(=O)N[C@H]1CC[C@H](Cn2c(=O)n(C3Cc4ccccc4C3)c3ccccc32)CC1 [Example 184, 5-chloro-N-((1r,4r)-4-((3-(2,3-dihydro-1H-inden-2-yl)-2-oxo-2,3-dihydro-1H-benzo [d]imidazol-1-yl)methyl)cyclohexyl)-2-methyl-nicotinamide]
Cc1ncc(Cl)cc1C(=O)N[C@H]1CC[C@H](Cn2c(=O)n(-c3cccc(-c4cnn(C)c4)c3)c3ccccc32)CC1 [Example 678, 5-chloro-2-methyl-N-((1r,4r)-4-((3-(3-(1-methyl-1H-pyrazol-4-yl)phenyl)-2-oxo-2,3-dihydro-1H-benzo[d]imidazol-1-yl)methyl)cyclohexyl)nicotinamide]
CNC(=O)c1ccc(-n2c(=O)n(C[C@H]3CC[C@H](NC(=O)c4cc(Cl)cnc4C(F)F)CC3)c3cc(OC)ccc32)cn1 [Example 528, 5-(3-(((1r,4r)-4-(5-chloro-2-(difluoromethyl)nicotinamido)cyclohexyl)methyl)-5-methoxy-2-oxo-2,3-dihydro-1H-benzo [d]imidazol-1-yl)-N-methylpicolinamide]
Cc1ccc(-n2c(=O)n(C[C@H]3CC[C@H](NC(=O)c4cc(Cl)cnc4C(F)(F)F)CC3)c3cccc(C)c32)cn1 [Example 302, 5-chloro-N-((1r,4r)-4-((4-methyl-3-(6-methylpyridin-3-yl)-2-oxo-2,3-dihydro-1H-benzo[d]imidazol-1-yl)methyl)cyclohexyl)-2-(trifluoromethyl)nicotinamide]
Cc1ncc(Cl)cc1C(=O)N[C@H]1CC[C@H](Cn2c(=O)n(-c3ccc4[nH]nc(Cl)c4c3)c3ccccc32)CC1 [Example 222, 5-chloro-N-((1r,4r)-4-((3-(3-chloro-1H-indazol-5-yl)-2-oxo-2,3-dihydro-1H-benzo[d]imidazol-1-yl)methyl)cyclohexyl)-2-methylnicotinamide]
